Experimental data from patent US8802678B2, “Carbonylated (aza) cyclohexanes as dopamine D3 receptor ligands” (Bioprojet, priority 2006, dated 2014).
Structures can show the parent of a compound that is named as a salt.

Legend:
[1] = molecular target: human D3 receptor (Homo sapiens, UniProt P35462); assay: [3H]spiperone binding, membranes of CHO cells transfected with human D3 receptor cDNA; conditions: affinity for the human D3 receptor; [3H]spiperone 0.5-2 nM, CHO-hD3 membranes, 60 minutes at room temperature
human D3 receptor, sequence (P35462 whole entry): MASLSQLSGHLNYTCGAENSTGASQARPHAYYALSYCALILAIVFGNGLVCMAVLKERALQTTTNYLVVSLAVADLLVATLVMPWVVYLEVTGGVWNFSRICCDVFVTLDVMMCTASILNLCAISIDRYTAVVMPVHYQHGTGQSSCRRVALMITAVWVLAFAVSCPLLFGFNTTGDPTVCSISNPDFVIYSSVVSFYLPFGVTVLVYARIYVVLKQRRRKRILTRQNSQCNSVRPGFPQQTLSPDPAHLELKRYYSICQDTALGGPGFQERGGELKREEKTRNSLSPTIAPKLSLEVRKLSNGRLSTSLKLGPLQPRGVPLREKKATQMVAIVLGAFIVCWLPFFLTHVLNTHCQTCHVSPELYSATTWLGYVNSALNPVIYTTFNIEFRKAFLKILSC
Method: Affinity of compounds for the human D3 receptor can be determined by [^3H] spiperone binding CHO cells have been transfected by the cDNA coding for the human D3 receptor (hD3). [^3H]Spiperone (0.5 à 2 nM) binding is performed in the presence of 2.5 to 5 μg of membrane proteins in a medium containing 120 mM NaCl, 5 mM KCl, and 50 mM Tris HCl pH 7.4; incubation for 60 minutes at room temperature is performed. Non specific binding is estimated in the presence of 10 μM haloperidol. Non transfected cells are devoid of any specific binding.

SMILES | Ki [1] [nM] | melting point [°C]
O=C(C=C1CCC(CCN2CCN(c3cccc(C(F)(F)F)c3)CC2)CC1)N1CCCC1 (stereo not shown) [Example 291, 1-Pyrrolidin-1-yl-2-(4-{2-[4-(3-trifluoromethylphenyl)piperazin-1-yl]ethyl}cyclohexylidene) ethanone] | 4.4 | 87
O=C(N[C@H]1CC[C@H](CCN2CCN(c3ccccn3)CC2)CC1)C1CC=CC1 [Example 65, Cyclopent-3-enecarboxylic acid {4-[2-(4-pyridin-2-ylpiperazin-1-yl)ethyl]cyclohexyl}amide] | 31.6 | 208
O=C(CO)N[C@H]1CC[C@H](CCN2CCN(c3cccc(C(F)(F)F)c3)CC2)CC1 [Example 46, 2-Hydroxy-N-(4-{2-[4-(3-trifluoromethylphenyl)piperazin-1-yl]ethyl}cyclohexyl)acetamide, hydrochloride] | 12 | –
CC(=O)C(=O)N1CCC(CCN2CCN(c3cccc(C(F)(F)F)c3)CC2)CC1 [Example 2, 1-(4-{2-[4-(3-trifluoromethylphenyl)piperazin-1-yl]ethyl}-piperidin-1-yl)propane-1,2-dione, hydrochloride] | 6.6 | –
COc1cccc(N2CCN(CCC3CCN(CC(C)=O)CC3)CC2)c1.Cl.Cl | – | 265
CCCOCC(=O)N[C@H]1CC[C@H](CCN2CCN(c3cc(C(F)(F)F)ccc3F)CC2)CC1.Cl | – | 240
CSc1cccc(N2CCN(CC[C@H]3CC[C@H](NC(=O)CCC#N)CC3)CC2)c1 [Example 269, 3-Cyano-N-(4-{2-[4-(3-methylsulfanylphenyl)piperazin-1-yl]ethyl}cyclohexyl)-propanamide] | – | 98
O=C(N[C@H]1CC[C@H](CCN2CCN(c3cccc(C(F)(F)F)c3F)CC2)CC1)C(F)F [Example 443, 2,2-Difluoro-N-(4-{2-[4-(2-fluoro-3-trifluoromethylphenyl)piperazin-1-yl]ethyl}cyclohexyl)acetamide] | – | 156
COCCCC(=O)N[C@H]1CC[C@H](CCN2CCN(c3cc(C)cc(Cl)c3)CC2)CC1 [Example 578, N-(4-{2-[4-(3-Chloro-5-methylphenyl)piperazin-1-yl]ethyl}cyclohexyl)-4-methoxybutanamide] | – | 167
COc1ccc(C(F)(F)F)cc1N1CCN(CC[C@H]2CC[C@H](NC(=O)CCCC#N)CC2)CC1 [Example 405, 4-Cyano-N-(4-{2-[4-(2-methoxy-5-trifluoromethylphenyl)piperazin-1-yl]ethyl}cyclohexyl)butanamide] | – | 136
N#CCC(=O)N[C@H]1CC[C@H](CCN2CC=C(c3cc(C(F)(F)F)ccc3F)CC2)CC1 | – | 168
CC(=O)CN1CCC(CCN2CCN(c3ccc(Cl)c(C(F)(F)F)c3)CC2)CC1.Cl.Cl | – | 263
Cc1ccccc1N1CCN(CC[C@H]2CC[C@H](NC(=O)CCCC#N)CC2)CC1 [Example 428, 4-Cyano-N-{4-[2-(4-o-tolylpiperazin-1-yl)ethyl]cyclohexyl}butanamide] | – | 160
O=C(N[C@H]1CC[C@H](CCN2CCN(c3ccc(F)cc3F)CC2)CC1)C1=CCCCC1 [Example 71, Cyclohex-1-enecarboxylic acid (4-{2-[4-(2,4-difluorophenyl)-piperazin-1-yl]ethyl}-cyclohexyl)amide] | – | 203
N#CCCCC(=O)N[C@H]1CC[C@H](CCN2CCN(c3cc(F)cc(C(F)(F)F)c3)CC2)CC1 [Example 665, 4-Cyano-N-(4-{2-[4-(3-fluoro-5-trifluoromethylphenyl)piperazin-1-yl]ethyl}cyclohexyl)butanamide] | – | 163
COCCCC(=O)N[C@H]1CC[C@H](CCN2CCN(c3cccc(C(F)(F)F)c3C)CC2)CC1 [Example 735, 4-Methoxy-N-(4-{2-[4-(2-methyl-3-trifluoromethylphenyl)piperazin-1-yl]ethyl}cyclohexyl)butanamide] | – | 173
Cl.Cl.O=C(N[C@H]1CC[C@H](CCN2CCN(c3cc(C(F)(F)F)ccc3F)CC2)CC1)[C@@H]1CCCN1 (stereo in doubt) | – | 274
N#CCCCC(=O)N[C@H]1CC[C@H](CCN2CCN(c3cccc(C#N)c3)CC2)CC1 [Example 448, 4-Cyano-N-(4-{2-[4-(3-cyanophenyl)piperazin-1-yl]ethyl}cyclohexyl)butanamide] | – | 184
CSc1ccccc1N1CCN(CC[C@H]2CC[C@H](NC(=O)CCCC#N)CC2)CC1 [Example 236, 4-Cyano-N-(4-{2-[4-(2-methylsulfanylphenyl)piperazin-1-yl]ethyl}cyclohexyl)butanamide] | – | 130
N#CCC(=O)N[C@H]1CC[C@H](CCN2CCN(c3ccc(F)c(F)c3F)CC2)CC1 [Example 450, 2-Cyano-N-(4-{2-[4-(2,3,4-trifluorophenyl)piperazin-1-yl]ethyl}cyclohexyl)acetamide] | – | 207
CCc1ccccc1N1CCN(CC[C@H]2CC[C@H](NC(=O)CC#N)CC2)CC1 [Example 247, 2-Cyano-N-(4-{2-[4-(2-ethylphenyl)piperazin-1-yl]ethyl}cyclohexyl)acetamide] | – | 142 to 143

SMILES | Ki [1] [nM] | melting point [°C]
N#CCC(=O)N[C@H]1CC[C@H](CCN2CCN(c3cc(Cl)c(Cl)cc3Cl)CC2)CC1 [Example 717, 2-Cyano-N-(4-{2-[4-(2,4,5-trichlorophenyl)piperazin-1-yl]ethyl}cyclohexyl)acetamide] | – | 200
CC(=O)CN1CCC(CCN2CCN(c3ccc(F)c(F)c3F)CC2)CC1 [Example 656] | – | 88
CC(C)(C)c1nc(N2CCN(CC[C@H]3CC[C@H](NC(=O)CC#N)CC3)CC2)cc(C(F)(F)F)n1 [Example 177, N-(4-{2-[4-(2-tert-Butyl-6-trifluoromethylpyrimidin-4-yl)piperazin-1-yl]ethyl}cyclohexyl)-2-cyanoacetamide trans/cis 85/15] | – | 188
N#CCCCC(=O)N[C@H]1CC[C@H](CCN2CCN(c3ccc(F)c(F)c3F)CC2)CC1 [Example 451, 4-Cyano-N-(4-{2-[4-(2,3,4-trifluorophenyl)piperazin-1-yl]ethyl}cyclohexyl)butanamide] | – | 178
COCC(=O)N[C@H]1CC[C@H](CCN2CCN(c3cccc(C#N)c3)CC2)CC1 [Example 86, N-(4-{2-[4-(3-Cyanophenyl)piperazin-1-yl]ethyl}cyclohexyl)-2-methoxyacetamide] | – | 138
O=C(N[C@H]1CC[C@H](CCN2CCN(c3cccc(C(F)(F)F)c3)CC2)CC1)C1=CCCCC1 [Example 53, Cyclohex-1-enecarboxylic acid (4-{2-[4-(3-trifluoromethylphenyl)-piperazin-1-yl]ethyl}cyclohexyl)-amide] | – | 175
N#CCC(=O)N[C@H]1CC[C@H](CCN2CCN(c3cccc4ncccc34)CC2)CC1 [Example 239, 2-Cyano-N-{4-[2-(4-quinolin-5-ylpiperazin-1-yl)ethyl]cyclohexyl}acetamide] | – | 220
COc1cccc(N2CCN(CC[C@H]3CC[C@H](NC(=O)C4=CCCC4)CC3)CC2)c1 [Example 417, Cyclopent-1-enecarboxylic acid (4-{2-[4-(3-methoxyphenyl)-piperazin-1-yl]ethyl}cyclohexyl) amide] | – | 160
CCC(=O)CN1CCC(CCN2CCN(c3cccc(Cl)c3Cl)CC2)CC1 [Example 771] | – | 68
COc1ccc(C)cc1N1CCN(CC[C@H]2CC[C@H](NC(=O)CC#N)CC2)CC1 [Example 195, 2-Cyano-N-(4-{2-[4-(2-methoxy-5-methylphenyl)piperazin-1-yl]ethyl}cyclohexyl)acetamide] | – | 178
N#CCCCC(=O)N[C@H]1CC[C@H](CCN2CCN(c3cc(F)ccc3F)CC2)CC1 [Example 442, 4-Cyano-N-(4-{2-[4-(2,5-difluorophenyl)piperazin-1-yl]ethyl}cyclohexyl)butanamide] | – | 159
O=C(N[C@H]1CC[C@H](CCN2CCN(c3cccc(F)c3)CC2)CC1)C1=CCCCC1 [Example 394] | – | 195
N#CCCCC(=O)N[C@H]1CC[C@H](CCN2CC=C(c3ccc(C(F)(F)F)cc3)CC2)CC1 | – | 185
Cl.O=C(CCC(F)(F)F)N1CCC(CCN2CCN(c3cccc4c3CCC4)CC2)CC1 | – | 219
COc1c(Cl)cccc1N1CCN(CCC2CCN(CC(C)=O)CC2)CC1.Cl.Cl | – | 270
Cc1cccc(N2CCN(CC[C@H]3CC[C@H](NC(=O)C4CC=CC4)CC3)CC2)c1 [Example 379, Cyclopent-3-enecarboxylic acid {4-[2-(4-m-tolylpiperazin-1-yl)ethyl]cyclohexyl}] | – | 200
N#CCC(=O)N[C@H]1CC[C@H](CCN2CCN(c3cccc(Cl)c3C#N)CC2)CC1 [Example 246, N-(4-{2-[4-(3-Chloro-2-cyanophenyl)piperazin-1-yl]ethyl}cyclohexyl)-2-cyanoacetamide] | – | 232 to 233
CC(=O)CN1CCC(CCN2CCN(c3cccc(C#N)c3)CC2)CC1.Cl.Cl | – | 250
O=C(CC(F)(F)F)N[C@H]1CC[C@H](CCN2CCN(c3cccc(F)c3F)CC2)CC1 [Example 446, N-(4-{2-[4-(2,3-Difluorophenyl)piperazin-1-yl]ethyl}cyclohexyl)-3,3,3-trifluoropropanamide] | – | 220
N#CCC(=O)N[C@H]1CC[C@H](CCN2CCN(c3cccc(C(F)(F)F)c3F)CC2)CC1 [Example 158, 2-Cyano-N-(4-{2-[4-(2-fluoro-3-trifluoromethylphenyl)piperazin-1-yl]ethyl}cyclohexyl)acetamide] | – | 194
